# Experimental data as given in PubChem BioAssay AID1914 (Broad Institute, 2009).
# Where “and” joins values, the source holds several entries; their conditions need not be identical. Identical values can stand only once. Inconclusive results are not listed. Calls of active or inactive are those of the source.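 The calls were made as follows: active = Compounds whose fitted IC50 for cell-normalized streptokinase activity falls within a set log distance above the top dose; inactive = IC50 further above the top dose than that limit.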
# Target: S. pyogenes M1 GAS, streptokinase activity/viability, OD405, 6 h
# Experiment: S. pyogenes streptokinase expression inhibitors, potency, dose response, plasminogen activation absorbance, OD405 (AID 1914)
row,SMILES,IC50
1,CCN1/C(=C\C=C\C2=[N+](CC)c3ccccc3C2(C)C)C(C)(C)c2ccccc21,15.6 µM
2,CN(C)c1ccnc2c[cH-]cc12.[Fe].c1ccc(-[c-]2[c-](-c3ccccc3)[c-](-c3ccccc3)[c-](-c3ccccc3)[c-]2-c2ccccc2)cc1 (stereo unspecified),2.11 µM and 2.6 µM
3,CCCCCCCCCCCCCCCCn1cc[n+](C)c1,> 15 µM (inactive)
4,Cc1ccc(C(O)(C(=O)NNc2ccc3ccccc3n2)c2ccc(C)cc2)cc1,> 15 µM (inactive)
5,CNC(CC(C)C)C(=O)NC1C(=O)NC(CC(N)=O)C(=O)NC2C(=O)NC3C(=O)NC(C(=O)NC(C(=O)O)c4cc(O)cc(O)c4-c4cc3ccc4O)C(O)c3ccc(c(Cl)c3)Oc3cc2cc(c3OC2OC(CO)C(O)C(O)C2OC2CC(C)(N)C(O)C(C)O2)Oc2ccc(cc2Cl)C1O (stereo unspecified),> 15 µM (inactive)
6,Cc1ccc(C[n+]2c(-c3ccc(C)cc3)cc(-c3ccc(C)cc3)cc2-c2ccc(C)cc2)cc1,3.61 µM
